Experimental data taken from ChEMBL document CHEMBL5329202, “New aryl-/heteroarylpiperazine derivatives of 1,7-dimethyl-8,9-diphenyl-4-azatricyclo[5.2.1.02,6]dec-8-ene-3,5,10-trione: Synthesis and preliminary studies of biological activities” (Bioorg Med Chem, 2023).
Active and inactive are the calls of the source. The rule behind the calls is not given here.

Assays:
SW480 = assay: Antiproliferative activity against human SW480 cells assessed as decrease in IL-6 level at IC50 measured after 72 hrs by ELISA assay relative to control; assay type: functional; parameters: scale not given: the % may be the effect or the level left
[1] = target: 5-hydroxytryptamine receptor 2A (Rattus norvegicus) (UniProt P14842); assay: Displacement of [3H]ketanserin from Sprague-Dawley rat 5-HT2A receptor measured after 60 mins by competitive binding assay
5-hydroxytryptamine receptor 2A (Rattus norvegicus), sequence (P14842 whole entry): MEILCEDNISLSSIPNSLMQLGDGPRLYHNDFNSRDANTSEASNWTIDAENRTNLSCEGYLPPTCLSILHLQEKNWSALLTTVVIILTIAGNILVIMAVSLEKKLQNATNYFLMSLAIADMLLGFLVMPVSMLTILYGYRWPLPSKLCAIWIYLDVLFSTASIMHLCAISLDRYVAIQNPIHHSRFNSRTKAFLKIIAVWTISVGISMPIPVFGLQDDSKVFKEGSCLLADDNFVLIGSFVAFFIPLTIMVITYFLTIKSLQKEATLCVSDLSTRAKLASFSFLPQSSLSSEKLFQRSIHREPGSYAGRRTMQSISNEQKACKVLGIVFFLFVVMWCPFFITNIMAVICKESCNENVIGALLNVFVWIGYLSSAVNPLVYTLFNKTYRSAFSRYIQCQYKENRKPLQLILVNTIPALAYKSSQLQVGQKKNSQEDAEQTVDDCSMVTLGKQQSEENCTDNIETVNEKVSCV

For CC12C(=O)C(C)(C(c3ccccc3)=C1c1ccccc1)C1C(=O)N(CCCCN3CCN(c4ccccc4Cl)CC3)C(=O)C12 (configuration not stated), the Activity (SW480) was 48%.
In the case of CC12C(=O)C(C)(C(c3ccccc3)=C1c1ccccc1)C1C(=O)N(CCCCN3CCN(c4ncccn4)CC3)C(=O)C12 (configuration not stated), the Activity [1] is reported as “inactive”.
